In brackets after ≈: the same amount, converted by molar mass. Several values for one entry are separate records, joined by “and”; a condition that tells them apart may be missing. Identical values can stand only once. Counter-ions that a name gives are not always drawn. Like-named read-outs stand apart in the source and are kept apart here. Marks after values point to notes of the source that are not given here. No end group written: not given here.
Assays:
S. aureus ATCC 25923 [1] = settings: superscript b; ref Shen et al., 2012; cited from earlier work
From the text: Table 1 MIC of various AMPs against S. aureus. | column: MIC for ATCC 25923 (mg/L) || Here, the antimicrobial peptide (AMP) DP7, a short 12 amino acid AMP with broad-spectrum antibacterial activities, was chosen to analyze its potential mechanisms for killing S. aureus.

S. aureus ATCC 33591 [2] = settings: superscript b; ref Shen et al., 2012; cited from earlier work
S. aureus DP7-R = assay type: cell-based, Staphylococcus aureus; settings: change from 1× MIC (ATCC 25923) to n× MIC (DP7-R)
Protocol: Subsequently, the bacterial samples were counted at different time points (0, 1, 2, 4, 6, 8, 18, and 24 h).
For every 48 h, we transferred 2% of each culture to new flasks containing fresh medium with a twofold higher DP7 concentration. […] Aliquots from each population were stored in 20% glycerol at -80°C.

S. aureus = test: In vitro time-killing assay; assay type: cell-based, Staphylococcus aureus; settings: Figure 1; S. aureus ATCC 25923 and ATCC 33591
S. aureus ATCC 25923 [3] = test: microbe, parasite or virus in culture; settings: Staphylococcus aureus, ATCC25923, 22 h, read-out: MIC for ATCC 25923
S. aureus ATCC 33591 [4] = assay type: cell-based, Staphylococcus aureus; settings: ATCC 33591, 22 h
Protocol: (§1) The susceptibility testing methods were performed as previously described ([Wiegand et al., 2008]). […] The minimum bactericidal concentration (MBC) endpoint is the lowest concentration of antibacterial agent that kills > 99.9% of the initial bacterial population where no visible growth of bacteria was observed on nutrient agar plates. […] Subsequently, the bacterial samples were counted at different time points (0, 1, 2, 4, 6, 8, 18, and 24 h).

S. aureus ATCC 25923 [5] = test system: S. aureus ATCC 25923
E. coli (ATCC 25922) = assay type: cell-based, Escherichia coli; settings: ATCC 25922, 22 h
Protocol: as §1

P. aeruginosa (PAO1) = assay type: cell-based, Pseudomonas aeruginosa; settings: PAO1, 22 h
Protocol: as §1

MRSA strain ATCC 33591 = test: Murine model of MRSA blood stream infection; assay type: in vivo, C57 female mice; settings: 10 mg/kg i.v., 72 h, vs PBS-treated mice, n = 5
Protocol: A well-characterized murine model of blood stream infection was employed to study the pharmacodynamics profiles of DP7 and compare them with those of vancomycin. Briefly, C57 female mice (body weight 17 g ± 1 g), purchased from Hua Fu Kang Biological Technology Co., Ltd (Beijing, China), were intravenously infected with 1 × 10^8 CFU/100 μL of MRSA strain ATCC 33591 in the logarithmic growth phase (recovery on defibrinated sheep blood agar, Oxoid, United Kingdom). One hour after infection, the mice were treated with various doses of DP7 (0.5, 1, and 2 mg/kg), while the mice in the control group were injected with the same volume of saline. Vancomycin at 10 mg/kg was used as the positive control. Survival and weight changes were observed every 24 h for 1 week. At 24 and 72 h, organs, including the heart, liver, spleen, lung, kidney, and blood were collected and the bacterial load was counted for each murine. At 72 h, the liver, spleen, lungs, and kidneys were fixed with 4% paraformaldehyde for 1 week, sectioned at 4 μm after processing for paraffin embedding, and then stained with hematoxylin and eosin (H&E). All animal procedures were approved and controlled by the Institutional Animal Care and Treatment Committee of Sichuan University and conducted according to the Animal Care and Use Guidelines of Sichuan University.

In the case of “LLGDFFRKSKEKIGKEFKRI VQRIKDFLRNLVPRTES [LL-37, antimicrobial peptide, 37 amino acids]”, the “MIC for ATCC 25923” value (S. aureus ATCC 25923 [1]) is given as 14 mg/L and 14^b mg/L and the “MIC for ATCC 33591” value (S. aureus ATCC 33591 [2]) is given as 28^b mg/L.

With `CNC(C)C1CCC(N)C(OC2C(N)CC(N)C(OC3OCC(C)(O)C(NC)C3O)C2O)O1` (stereo not shown) [gentamicin] the “MIC for DP7-R as multiple of the MIC for ATCC 25923” value (“MIC for DP7-R as multiple” below) (S. aureus DP7-R) was 4 × MIC, the “MIC use here (time-killing curves)” value (S. aureus) was 0.125 µg/mL (≈ 0.262 µM) and the MIC (S. aureus ATCC 25923 [3]) was 0.0625 µg/mL (≈ 0.131 µM).

For VQLRIRVAVIRA [HH2], the “MIC for ATCC 33591” value (S. aureus ATCC 33591 [4]) was 64^a mg/L and the “MIC for ATCC 25923” value (S. aureus ATCC 25923 [5]; ATCC 25923, 22 h) was 64 mg/L.

With RLARIVVIRVAR [Bac2A] the “MIC for ATCC 33591” value (S. aureus ATCC 33591 [4]) was 43.7^a mg/L.

With VQLRIRVCVIRK [DP8] the “MIC for DP7-R as multiple” value (S. aureus DP7-R) was 4 × MIC and the “MIC for ATCC 25923” value (S. aureus ATCC 25923 [5]; ATCC 25923, 22 h) was 16 mg/L.

In the case of `CO[C@H]1/C=C/O[C@@]2(C)Oc3c(C)c(O)c4c(O)c(c(/C=N/N5CCN(C)CC5)c(O)c4c3C2=O)NC(=O)/C(C)=C\C=C\[C@H](C)[C@H](O)[C@@H](C)[C@@H](O)[C@@H](C)[C@H](OC(C)=O)[C@@H]1C` [rifampicin], the “MIC for DP7-R as multiple” value (S. aureus DP7-R) is reported as 1 × MIC.

For `CCn1cc(C(=O)O)c(=O)c2cc(F)c(N3CCNCC3)cc21` [noroxin, norfloxacin], the “MIC for DP7-R as multiple” value (S. aureus DP7-R) was 2 × MIC, the “MIC use here (time-killing curves)” value (S. aureus) was 1 µg/mL (≈ 3.13 µM) and the MIC (S. aureus ATCC 25923 [3]) was 1 µg/mL (≈ 3.13 µM).

In the case of VQWRIRVAVIRK [DP7], the MBC (S. aureus ATCC 33591 [4]) is reported as 64 µg/mL, the “MIC for ATCC 33591” value (S. aureus ATCC 33591 [4]) is reported as 16^a mg/L and the MBC (E. coli (ATCC 25922)) is reported as 64 µg/mL. For the same molecule, the MIC (E. coli (ATCC 25922)) was 16 µg/mL, the MBC (P. aeruginosa (PAO1)) was 64 µg/mL and the MIC (P. aeruginosa (PAO1)) was 16 µg/mL. The MBC (S. aureus ATCC 25923 [5]; ATCC 25923, 22 h) was 64 µg/mL and the “MIC for ATCC 25923” value (S. aureus ATCC 25923 [5]; ATCC 25923, 22 h) was 16^a mg/L.

With `CC1COc2c(N3CCN(C)CC3)c(F)cc3c(=O)c(C(=O)O)cn1c23` (stereo not shown) [ofloxacin] the “MIC for DP7-R as multiple” value (S. aureus DP7-R) was 2 × MIC and the MIC (S. aureus ATCC 25923 [3]) was 0.25 µg/mL (≈ 0.692 µM).

For `CN[C@H](CC(C)C)C(=O)N[C@H]1C(=O)N[C@@H](CC(N)=O)C(=O)N[C@H]2C(=O)N[C@H]3C(=O)N[C@H](C(=O)N[C@H](C(=O)O)c4cc(O)cc(O)c4-c4cc3ccc4O)[C@H](O)c3ccc(c(Cl)c3)Oc3cc2cc(c3O[C@@H]2O[C@H](CO)[C@@H](O)[C@H](O)[C@H]2O[C@H]2C[C@](C)(N)[C@H](O)[C@H](C)O2)Oc2ccc(cc2Cl)[C@H]1O` [vancomycin], the “MIC for DP7-R as multiple” value (S. aureus DP7-R) was 1 × MIC, the “MIC use here (time-killing curves)” value (S. aureus) was 0.25 µg/mL (≈ 0.173 µM) and the “bacterial load in heart, liver, spleen, lung, kidney and blood” value (MRSA strain ATCC 33591) was “statistically significant reductions”. For the same molecule, the MIC (S. aureus ATCC 25923 [3]) was 0.25 µg/mL (≈ 0.173 µM).

With `COc1c(N2C[C@@H]3CCCN[C@@H]3C2)c(F)cc2c(=O)c(C(=O)O)cn(C3CC3)c12` [moxifloxacin hydrochloride] the “MIC for DP7-R as multiple” value (S. aureus DP7-R) was 1 × MIC and the MIC (S. aureus ATCC 25923 [3]) was 0.125 µg/mL.

For VQLRIRVCVIRK [DP10], the “MIC for DP7-R as multiple” value (S. aureus DP7-R) was 4 × MIC and the “MIC for ATCC 25923” value (S. aureus ATCC 25923 [5]; logarithmic growth-phase bacteria, 37°C, 22 h, OD600) was 64 mg/L.

In the case of `CC[C@H]1OC(=O)[C@H](C)[C@@H](O[C@H]2C[C@@](C)(OC)[C@@H](O)[C@H](C)O2)[C@H](C)[C@@H](O[C@@H]2O[C@H](C)C[C@H](N(C)C)[C@H]2O)[C@](C)(O)C[C@@H](C)CN(C)[C@H](C)[C@@H](O)[C@]1(C)O` [azithromycin], the “MIC for DP7-R as multiple” value (S. aureus DP7-R) is reported as 1 × MIC and the MIC (S. aureus ATCC 25923 [3]) is reported as 0.125 µg/mL (≈ 0.167 µM).

— publication PMC6546875, “Efficacy of Antimicrobial Peptide DP7, Designed by Machine-Learning Method, Against Methicillin-Resistant Staphylococcus aureus” (Frontiers in Microbiology, 2019)
